For one assay, the system named is olfactory TAARs. As to the kind of experiment: TAAR reporter gene assay, panel of mouse and rat TAARs in HEK293 cells. It is filed as cell-based. The following applies: mouse and rat TAARs. The source says: Here, we set out to identify agonists for additional mouse and rat TAARs. We examined odor response profiles using a previously established reporter gene assay based on cAMP-dependent odor transduction in olfactory sensory neurons (40, 42). Briefly, TAAR plasmids were transfected into HEK293 cells along with a cAMP-dependent reporter gene encoding secreted alkaline phosphatase (CRE-SEAP). TAARs were expressed both in unmodified form and as fusion proteins with an N-terminal sequence of bovine rhodopsin (‘Rho tag’) that promotes cell surface expression of some chemosensory receptors (35). Transfected cells were incubated with test chemicals, and phosphatase activity was quantified with a fluorescent substrate as a reporter for TAAR activation. In initial experiments, we tested 38 different odorant mixtures containing 244 structurally diverse test chemicals (2-5 μM) for the ability to activate each mTAAR. Subsequently, we tested 73 amines that included known mTAAR agonists and related chemicals for the ability to activate each rTAAR.
TAAR functional assays. Full Taar coding regions were cloned into pcDNA3.1-(Invitrogen) with or without a 5′ DNA extension of 69 bp encoding the first 20 amino acids of bovine rhodopsin followed by a cloning linker ([…]). Point mutations were introduced in mTAAR7e and mTAAR7f by overlap extension PCR. Functional assays were performed as described (40, 42). Fluorescence was measured on an EnVision plate reader (Perkin Elmer) and SEAP activity graphed as relative fluorescence of a phosphatase substrate.
On the technique in general: In a reporter assay the amount or activity of a reporter protein is the signal.

For the next assay, the target named is T1, mouse TAAR4 (Mus musculus, UniProt Q5QD15).
T1 construct: Full Taar coding regions were cloned into pcDNA3.1-(Invitrogen); expressed in transfected cells; host or cells: HEK293
T1 sequence (Q5QD15 1-347): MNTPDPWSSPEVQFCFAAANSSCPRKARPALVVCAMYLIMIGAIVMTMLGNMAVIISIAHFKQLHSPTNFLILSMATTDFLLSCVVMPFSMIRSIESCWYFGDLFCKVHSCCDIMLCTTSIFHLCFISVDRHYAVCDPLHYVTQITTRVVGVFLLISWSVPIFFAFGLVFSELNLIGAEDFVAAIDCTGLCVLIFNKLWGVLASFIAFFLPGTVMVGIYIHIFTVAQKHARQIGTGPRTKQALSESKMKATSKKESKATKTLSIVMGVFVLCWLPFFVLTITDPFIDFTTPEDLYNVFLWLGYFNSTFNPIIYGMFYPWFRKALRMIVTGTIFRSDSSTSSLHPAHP
As to the kind of experiment: TAAR4 CRE-SEAP reporter gene assay in transfected HEK293 cells. The format is cell-based. The following applies: concentration series of pure chemicals.

Assay [1] concerns corticosterone levels in rat plasma. As to the kind of experiment: Plasma corticosterone assay after odor exposure. The format is in vivo. The conditions noted are these: 30 min exposure, 10% amine or 2% TMT, 1 ml, ±SEM. How it is done:
Avoidance to 2-phenylethylamine in rats was associated with acute changes in circulating levels of the stress hormone corticosterone.
Plasma corticosterone assay. […] Corticosterone levels were measured in duplicate using a competitive radioactive binding assay as described previously (Pryce C R, Bettschen D, Bahr N I, & Feldon J (2001) Comparison of the effects of infant handling, isolation, and nonhandling on acoustic startle, prepulse inhibition, locomotion, and HPA activity in the adult rat. Behav Neurosci 115(1):71-83).

A further assay has as its target T2, mouse TAAR3 (Mus musculus, UniProt Q5QD16).
T2 construct: Full Taar coding regions were cloned into pcDNA3.1-(Invitrogen); expressed in transfected cells; host or cells: HEK293
T2 sequence (Q5QD16 1-343): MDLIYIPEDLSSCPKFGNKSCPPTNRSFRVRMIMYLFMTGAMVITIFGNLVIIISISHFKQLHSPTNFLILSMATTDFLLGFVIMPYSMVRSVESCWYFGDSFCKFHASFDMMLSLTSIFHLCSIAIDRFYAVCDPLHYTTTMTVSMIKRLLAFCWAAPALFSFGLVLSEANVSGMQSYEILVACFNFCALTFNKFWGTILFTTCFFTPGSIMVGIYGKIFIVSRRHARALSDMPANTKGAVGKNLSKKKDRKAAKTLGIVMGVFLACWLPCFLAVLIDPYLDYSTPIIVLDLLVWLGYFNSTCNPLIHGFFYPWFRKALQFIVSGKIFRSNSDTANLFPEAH
Briefly: TAAR3 CRE-SEAP reporter gene assay in transfected HEK293 cells. The format is cell-based. How it is done: Reporter gene assays were performed on HEK293 cells transfected with mouse TAAR3 and CRE-SEAP.
TAAR functional assays. Reporter gene assays were performed as described (Liberles S D & Buck LB (2006) A second class of chemosensory receptors in the olfactory epithelium. Nature 442(7103):645-650) with the following minor modifications. Test urines were diluted in serum-free media containing penicillin G (100 Units/ml, Invitrogen) and streptomycin sulfate ([…], Invitrogen). SEAP activity is measured as fluorescence resulting from dephosphorylation of a substrate, 4-methylumbelliferyl phosphate. Fluorescence values were obtained using an EnVision plate reader (Perkin Elmer) and are reported directly without normalization. All TAARs, except mouse TAAR3, were expressed as fusion proteins with an N-terminal sequence of bovine rhodopsin (Krautwurst D, Yau K W, & Reed R R (1998) Identification of ligands for olfactory receptors by functional expression of a receptor library. Cell 95(7):917-926).

In a further assay the test system is Sprague-Dawley rats. Briefly: Open field odor avoidance. The format is in vivo, rat. The following applies: ten minute exposure, 12 animals ±SEM; 1 ml urine or 5 μl amine. How it is done:
We next examined behavioral responses of rodents to 2-phenylethylamine. […] Behaviors of rats in a square-shaped arena were recorded and analyzed following placement of test stimuli in a pseudorandom corner (FIG. 5A). […] Thus, 2-phenylethylamine, in the absence of other predator odor cues, was sufficient to evoke rat avoidance behavior.
Open field behavioral analysis. Rat behavioral responses to odors in the open field were measured as described previously (Fendt M (2006) Exposure to urine of canids and felids, but not of herbivores, induces defensive behavior in laboratory rats. Journal of chemical ecology 32(12):2617-2627) with the following modifications. Adult Sprague-Dawley rats (240-340 g; Janvier, Le Genest St. Isle, France) were placed in the center of a 45 cm×45 cm Plexiglass arena (TSE Systems, Bad Homburg, Germany) equipped with infrared sensors (distance 14 mm, illumination 80-120 lux). The arena contained glass dishes (36 mm) in each corner, with one dish containing test stimuli. Prior to testing, animals were habituated to the arena by introducing them for three consecutive days. […] Location of the rats was automatically recorded using the infrared detectors and analyzed (TSE Systems software). Statistical significance was measured using Wilcoxon Signed Test (**p<0.01; comparison with chance level (25%)). […]

Assay [2] relates to mouse olfactory sensory neurons. As to the kind of experiment: Confocal calcium imaging of olfactory sensory neurons in tissue slices. It is filed as cell-based. The conditions noted are these: dorsal olfactory epithelium. As to the method: The mammalian olfactory system encodes odor identity using combinations of olfactory receptors (11). […] Here, we used a confocal imaging strategy to record cytosolic calcium transients of single sensory neurons in real time. Viability of analyzed neurons was determined after odor exposures by KCl-induced depolarization.
Confocal calcium imaging of olfactory sensory neurons in tissue slices. Recordings were performed as described (Spehr M, et al. (2006) Essential role of the main olfactory system in social recognition of major histocompatibility complex peptide ligands. J Neurosci 26(7):1961-1970) with the following modifications. For calcium sensitive dye loading, slices of olfactory epithelium were incubated (30 min, 4° C.) in HEPES solution (in mM: 145 NaCl, 5 KCl, 1 CaCl2, 1 MgCl2, 10 HEPES; pH=7.3) containing Fluo-4/AM (2 μM; Molecular Probes). Slices were transferred to a recording chamber (Slice Mini Chamber, Luigs & Neumann, Ratingen, Germany) and visualized using a Leica DM6000CFS confocal fixed stage upright microscope (Leica Microsystems, Mannheim, Germany) equipped with an apochromatic water immersion objective (HC X APO L20x/1.0 W) and infrared-optimized differential interference contrast (DIC) optics. Slices were anchored via stainless steel wires with 0.1 mm lycra threads and continuously superfused with HEPES-buffered solution. Changes in cytosolic calcium were monitored over time at 1.0 Hz frame rate. Stimulus application as well as solution exchange during inter-stimulus intervals was achieved by a custom-made, pressure-driven focal application device consisting of a software-controlled valve bank connected to a 7-in-1 ‘perfusion pencil’. Rhodamine application controlled for uniform flow and even stimulus application throughout the epithelial sensory surface. Offline analysis of time-lapse experiments was performed using LAS-AF software (Leica). All cells in a given field of view were marked as individual regions of interest (ROIs), and the relative fluorescence intensity for each ROI was calculated and processed as a function of time.

The record followed here is patent publication US20140221499A1, “NOVEL RODENT CONTROL AGENTS AND USES THEREOF” (priority 2011, published 2014).

Usually EC50 stands for the concentration that produces a half-maximal response.

Description for mouse TAAR4: HEK293 cells were co-transfected with TAAR expression plasmids and a cAMPdependent reporter gene encoding secreted alkaline phosphatase (CRE-SEAP). Transfected cells were incubated with urine extracts from different mammalian species, and phosphatase activity was quantified with a fluorescent substrate as a reporter for TAAR activation.
Test urines were diluted in serum-free media containing penicillin G (100 Units/ml, Invitrogen) and streptomycin sulfate (100 mg/ml, Invitrogen). SEAP activity is measured as fluorescence resulting from dephosphorylation of a substrate, 4-methylumbelliferyl phosphate. Fluorescence values were obtained using an EnVision plate reader (Perkin Elmer) and are reported directly without normalization.

In the case of `CN1CCCCC1` [1-methylpiperidine, N-methylpiperidine], the TAAR activation result in the assay with olfactory TAARs was “activated TAARs”.

On to `OCCc1ccccc1` [2-phenylethanol], for which the TAAR4 activation result at mouse TAAR4 is “did not activate TAAR4 at any concentration tested”.

Regarding `NCCCc1ccccc1` [3-phenylpropylamine], the TAAR4 activation entry at mouse TAAR4 is listed as “activates TAAR4 at high concentrations”.

For `CCCCN(C)C` [N,N-dimethylbutylamine], the TAAR activation result with olfactory TAARs is recorded as “activated TAARs”.

For the compound `CCCCCCCCN(C)C` [N,N-dimethyloctylamine], the TAAR activation entry in the assay with olfactory TAARs was “activated TAARs”.

As to `CC1=NC(C)SC1C` (stereo not shown) [TMT, 2,5-dihydro-2,4,5-trimethylthiazole], the “plasma levels of corticosterone” value in assay [1] was 238 ± 21 ng/mL.

In the case of `NCc1ccccc1` [benzylamine, reference compound], the EC50 at mouse TAAR3 was about 200 µM. Moreover, in assay [1], the “plasma levels of corticosterone” value came to 130 ± 32 ng/mL. In the assay on Sprague-Dawley rats, the “percentage of time rats are located in the odor quadrant” value came to 29±7.2%. Besides, the “carnivore odor-selective neurons activated by 2-phenylethylamine that also responded to benzylamine” value in assay [2] was 0/1268. Besides, the TAAR4 activation result at mouse TAAR4 is “did not similarly activate TAAR4”.

For `NC1CCCCC1` [cyclohexylamine], in the assay on olfactory TAARs, the TAAR activation result is on record as “activated TAARs”.

Turning to `CC(C)CCN` [isoamylamine], on mouse TAAR3, the TAAR3 detection result is reported as “preferred ligand”. Moreover, the TAAR activation result in the assay with olfactory TAARs is recorded as “activated TAARs”.

With `COc1ccc2[nH]cc(CCN(C)C)c2c1` [ligand 7, 5-methoxy-N,N-dimethyltryptamine], the TAAR activation result with olfactory TAARs is “activated different TAAR7 paralogs”.

Take `CCCCNC` [methylbutylamine]: in the assay on olfactory TAARs, the TAAR activation result was “activated TAARs”.
